Data as given in patent publication US20260042764A1, “COMPOSITIONS AND METHODS FOR INHIBITION OF KRAS” (TheRas, Inc., priority 2022, published 2026).

Key:
[1] = biological target: T1, Avi-KRAS G12V (1-169) GppNHp/RAF1 RBD-3xFLAG (52-151) (Homo sapiens, UniProt P01116, G12V); test: Raf1-KRAS G12V-GppNHP disruption HTRF assay (Biological Example 1); type: binding; details: KRAS G12V, GppNHp-loaded; class symbols
T1 construct: Avi-KRAS G12V (1-169)
Outline: (§1)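 Percent activity versus DMSO (100%) was derived from HTRF signal after KRAS–RAF1 RBD protein mix was incubated 1 h at room temperature with shaking and detection reagents were added for a further 1 h.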

[2] = biological target: T2, Avi-KRAS G12D (1-169) GppNHp/RAF1 RBD-3xFLAG (52-151) (Homo sapiens, UniProt P01116, G12D); test: Raf1-KRAS G12D-GppNHP disruption HTRF assay (Biological Example 1); type: binding; details: KRAS G12D, GppNHp-loaded; class symbols
T2 construct: Avi-KRAS G12D (1-169)
Outline: as §1

[3] = biological target: T3, Avi-KRAS WT (1-169) GppNHp/RAF1 RBD-3xFLAG (52-151) (Homo sapiens, UniProt P01116); test: Raf1-KRAS WT-GppNHP disruption HTRF assay (Biological Example 1); type: binding; details: KRAS WT, GppNHp-loaded; class symbols
T3 construct: Avi-KRAS WT (1-169)
Outline: as §1

[4] = biological target: T4, Avi-KRAS G12R (1-169) GppNHp/RAF1 RBD-3xFLAG (52-151) (Homo sapiens, UniProt P01116, G12R); test: Raf1-KRAS G12R-GppNHP disruption HTRF assay (Biological Example 1); type: binding; details: KRAS G12R, GppNHp-loaded; class symbols
T4 construct: Avi-KRAS G12R (1-169)
Outline: as §1

GP2d cells (KRAS G12D) = test: Cell-based pERK HTRF assay in GP2d cell (Biological Example 2); details: GP2d, GP2d (KRAS G12D) cells, pERK HTRF; class symbols
Outline: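 60 min compound, 0.25% DMSO, 9-pt half-log curve from 1 μM or 100 nM; DMEM/10% FBS.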

SW620 cells (KRAS G12V) = test: Cell-based pERK HTRF assay in SW620 cell (Biological Example 4); details: Homo sapiens, SW-620, SW620 (KRAS G12V) cells, pERK HTRF; class symbols
Outline: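 Read-out: HTRF pERK signal (excitation 320 nm, emission 615 nm) from lysates of SW620 cells after 4 h compound exposure. Dose range was 9 points, half-log steps from 1 μM, in 0.25% DMSO; antibody incubation ran 4–24 h at room temperature.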

T2 sequence (P01116 1-169 isoform P01116-2 G12D): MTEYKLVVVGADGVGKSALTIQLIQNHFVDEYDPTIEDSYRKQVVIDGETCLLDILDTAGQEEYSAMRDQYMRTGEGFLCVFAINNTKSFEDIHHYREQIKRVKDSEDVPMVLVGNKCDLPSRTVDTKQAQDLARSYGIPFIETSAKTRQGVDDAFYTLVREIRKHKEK
T4 sequence (P01116 1-169 isoform P01116-2 G12R): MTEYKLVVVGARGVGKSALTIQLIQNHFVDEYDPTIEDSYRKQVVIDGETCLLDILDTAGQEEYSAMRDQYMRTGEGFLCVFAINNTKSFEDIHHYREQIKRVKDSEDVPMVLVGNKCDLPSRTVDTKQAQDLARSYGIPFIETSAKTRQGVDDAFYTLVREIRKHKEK
T1 sequence (P01116 1-169 isoform P01116-2 G12V): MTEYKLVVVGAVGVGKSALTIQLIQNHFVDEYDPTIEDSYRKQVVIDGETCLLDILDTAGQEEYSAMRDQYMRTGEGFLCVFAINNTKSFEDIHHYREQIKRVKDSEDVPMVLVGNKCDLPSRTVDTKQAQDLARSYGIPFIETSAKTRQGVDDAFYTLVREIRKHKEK
T3 sequence (P01116 1-169 isoform P01116-2): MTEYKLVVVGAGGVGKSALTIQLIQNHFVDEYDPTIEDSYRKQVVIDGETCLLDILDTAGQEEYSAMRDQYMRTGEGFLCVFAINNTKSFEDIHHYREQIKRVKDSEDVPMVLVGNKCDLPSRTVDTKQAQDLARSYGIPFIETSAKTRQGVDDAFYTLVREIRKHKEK

Row | Compound | IC50 [1] | IC50 [2] | IC50 [3] | IC50 [4] | IC50 (GP2d cells (KRAS G12D)) | IC50 (SW620 cells (KRAS G12V))
1 | CCN(c1nc(OC[C@@]23CCCN2C[C@H](F)C3)nc2c(F)c(-c3ccc(F)c4sc(N)c(C#N)c34)c(C(F)(F)F)cc12)[C@@H]1CCN(C(=O)[C@H](C)OC)[C@@H]1C (atropisomer, axis not shown) [Compound 789] | 100 to 1000 nM | < 100 nM | < 100 nM | < 100 nM | < 100 nM | < 100 nM
2 | CCN(c1nc(OC[C@@]23CCCN2C[C@H](F)C3)nc2c(F)c(-c3ccc(F)c4sc(N)c(C#N)c34)c(C(F)(F)F)cc12)[C@H]1CCN(C(=O)[C@H](C)CF)C1 (atropisomer, axis not shown) [Compound 790] | 100 to 1000 nM | < 100 nM | < 100 nM | < 100 nM | < 100 nM | < 100 nM
3 | CCN(c1nc(OC[C@@]23CCCN2C[C@H](F)C3)nc2c(F)c(-c3ccc(F)c4sc(N)c(C#N)c34)c(C(F)(F)F)cc12)[C@H]1CCN(C(=O)N2CC3(CC3)C2)C1 (atropisomer, axis not shown) [Compound 793] | < 100 nM | < 100 nM | < 100 nM | < 100 nM | < 100 nM | < 100 nM
4 | CCN(c1nc(OC[C@@]23CCCN2C[C@H](F)C3)nc2c(F)c(-c3ccc(F)c4sc(N)c(C#N)c34)c(C(F)(F)F)cc12)[C@H]1CCN(C(=O)N2CC(OC(F)F)C2)C1 (atropisomer, axis not shown) [Compound 794] | < 100 nM | < 100 nM | < 100 nM | < 100 nM | < 100 nM | < 100 nM
5 | CCN(c1nc(OC[C@@]23CCCN2C[C@H](F)C3)nc2c(F)c(-c3ccc(F)c4sc(N)c(C#N)c34)c(C(F)(F)F)cc12)[C@@H]1CN2C(=O)OC[C@]2(C)C1 (atropisomer, axis not shown) [Compound 795] | < 100 nM | < 100 nM | < 100 nM | < 100 nM | < 100 nM | < 100 nM
6 | CCN(c1nc(OC[C@@]23CCCN2C[C@H](F)C3)nc2c(F)c(-c3ccc(F)c4sc(N)c(C#N)c34)c(C(F)(F)F)cc12)[C@H]1CCN(C(=O)N(C)C)[C@H]1C (atropisomer, axis not shown) [Compound 798] | 1000 to 10000 nM | 100 to 1000 nM | 1000 to 10000 nM | 1000 to 10000 nM | 100 to 1000 nM | 100 to 1000 nM
7 | CCN(c1nc(OC[C@@]23CCCN2C[C@H](F)C3)nc2c(F)c(-c3ccc(F)c4sc(N)c(C#N)c34)c(C(F)(F)F)cc12)[C@H]1CCN(C(=O)OC)[C@H]1C (atropisomer, axis not shown) [Compound 799] | 1000 to 10000 nM | 1000 to 10000 nM | 100 to 1000 nM | 1000 to 10000 nM | 100 to 1000 nM | 100 to 1000 nM
8 | [2H][C@]1(N(CC)c2nc(OC[C@@]34CCCN3C[C@H](F)C4)nc3c(F)c(-c4ccc(F)c5sc(N)c(C#N)c45)c(C(F)(F)F)cc23)CCN(C(=O)OC)C1 (atropisomer, axis not shown) [Compound 800] | < 100 nM | < 100 nM | < 100 nM | < 100 nM | < 100 nM | < 100 nM
9 | COC1CN(C(=O)N2CC[C@H](N(c3nc(OC[C@@]45CCCN4C[C@H](F)C5)nc4c(F)c(-c5ccc(F)c6sc(N)c(C#N)c56)c(C(F)(F)F)cc34)C3CC3)C2)C1 (atropisomer, axis not shown) [Compound 801] | 100 to 1000 nM | < 100 nM | 100 to 1000 nM | 100 to 1000 nM | < 100 nM | < 100 nM
10 | CCN(c1nc(OC[C@@]23CCCN2C[C@H](F)C3)nc2c(F)c(-c3ccc(F)c4sc(N)c(C#N)c34)c(C(F)(F)F)cc12)[C@H]1CCN(C(=O)OC2CCC2)C1 (atropisomer, axis not shown) [Compound 802] | < 100 nM | < 100 nM | 100 to 1000 nM | < 100 nM | < 100 nM | < 100 nM
11 | CCN(c1nc(OC[C@@]23CCCN2C[C@H](F)C3)nc2c(F)c(-c3ccc(F)c4sc(N)c(C#N)c34)c(C(F)(F)F)cc12)[C@H]1CCN(C(=O)c2ncc(C)o2)C1 (atropisomer, axis not shown) [Compound 803] | 100 to 1000 nM | < 100 nM | 100 to 1000 nM | 100 to 1000 nM | < 100 nM | < 100 nM
